US8361997B2, “Process for preparing a crystalline form of halobetasol propionate” (Taro Pharmaceutical North America, Inc., priority 2005, dated 2013)

Assays:
[1] = Stability of HPLC sample and standard solutions in diluent; type: physicochemical; details: approx. 20 mg in 100 mL diluent (45:55 v/v water and acetonitrile); room temperature for 2 days protected from sunlight
Experimental: (§1) Approximately 20 mg of the crystalline halobetasol propionate sample to be assayed, accurately weighed, was transferred into a 100-mL volumetric flask, and the flask was filled to volume with diluent. The solution was sonicated to ensure complete dissolution. The sample solution was stable at room temperature for 2 days protected from sunlight.
as §1, with “of a” for “of the”, “propionate standard,” for “propionate sample to be assayed,”, “The standard” for “The sample”

[2] = cited from earlier work

CCC(=O)O[C@]1(C(=O)CCl)[C@@H](C)C[C@H]2[C@@H]3C[C@H](F)C4=CC(=O)C=C[C@]4(C)[C@@]3(F)[C@@H](O)C[C@@]21C [Halobetasol propionate, (6α,11β,16β)-21-chloro-6,9-difluoro-11-hydroxy-16-methyl-17-(1-oxopropoxy)pregna-1,4-diene-3,20-dione]
stability of the solution [1]: stable | solubility in organic solvents ([2]; organic solvents): soluble | solubility in water ([2]; water): insoluble
